Reference: patent US7994140B2, “Classes of compounds that interact with GPCRs” (Alchemia Limited, priority 2002, dated 2011)

Tests used:
MC4 = biological target: T1, MC4 (Homo sapiens, UniProt P32245); test: GPCR radioligand binding (RLB) assay, melanocortin MC4, [125I]NDP-αMSH
T1 construct: purchased Perkin Elmer BioSignal; host or cells: HEK 293
Summary of the method: (§1)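 Competition binding against radioligand ([125I]NDP-αMSH for MC4, [125I]SST-14 for SST5) on membranes of HEK 293 cells carrying the human receptor; buffer and incubation time optimized per receptor. Filtration through 0.5% PEI-treated glass fiber, washing, then scintillation counting.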

SST5 = biological target: T2, SST5 (Homo sapiens, UniProt P35346); test: GPCR radioligand binding (RLB) assay, somatostatin SST5, [125I]SST-14; conditions: for SST5 inhibition at 10 micromolar: 10 micromolar compound, recombinant human receptor membranes (HEK 293); for SSTS inhibition at 10 micromolar: Example Library 4
T2 construct: purchased Perkin Elmer BioSignal; host or cells: HEK 293
Summary of the method: as §1

[1] = 10 micromolar compound, recombinant human receptor membranes (HEK 293)
[2] = 10 micromolar, Example Library 4

T1 sequence (P32245 whole entry): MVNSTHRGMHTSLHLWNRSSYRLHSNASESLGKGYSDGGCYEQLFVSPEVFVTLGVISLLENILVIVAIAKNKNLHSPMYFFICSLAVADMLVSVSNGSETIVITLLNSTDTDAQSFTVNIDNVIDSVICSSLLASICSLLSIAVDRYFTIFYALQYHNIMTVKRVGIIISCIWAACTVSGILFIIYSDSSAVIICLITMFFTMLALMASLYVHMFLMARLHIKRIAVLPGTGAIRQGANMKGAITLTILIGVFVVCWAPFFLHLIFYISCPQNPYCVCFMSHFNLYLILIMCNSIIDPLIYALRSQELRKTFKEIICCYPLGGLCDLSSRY
T2 sequence (P35346 whole entry): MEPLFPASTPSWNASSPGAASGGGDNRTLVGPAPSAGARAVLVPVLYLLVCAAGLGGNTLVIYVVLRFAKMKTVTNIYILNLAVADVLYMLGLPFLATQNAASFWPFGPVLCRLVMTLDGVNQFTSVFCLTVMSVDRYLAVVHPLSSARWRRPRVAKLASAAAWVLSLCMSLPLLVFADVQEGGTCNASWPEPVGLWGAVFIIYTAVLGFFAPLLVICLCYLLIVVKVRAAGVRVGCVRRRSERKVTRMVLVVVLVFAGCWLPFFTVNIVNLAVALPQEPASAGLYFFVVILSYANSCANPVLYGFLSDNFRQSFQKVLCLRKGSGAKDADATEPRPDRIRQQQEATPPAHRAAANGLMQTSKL

Structure (SMILES)	MC4 inhibition at 10 micromolar (MC4; [1])	SST5 inhibition at 10 micromolar (SST5)	MC4 inhibition at 10 micromolar (MC4; [2])	SSTS inhibition at 10 micromolar (SST5)
CSC1OC(COCc2ccc3ccccc3c2)C(O)C(OCc2ccc3ccccc3c2)C1NC(=O)CN (stereo not shown) [Compound 209]	+ (Indicates inhibition greater than . . . 50%)	+ (Indicates inhibition greater than . . . 50%)		
CSC1OC(COCc2ccc3ccccc3c2)C(O)C(OCc2ccc3ccccc3c2)C1NC(=O)CNC(=N)N (stereo not shown) [Compound 210]	+ (Indicates inhibition greater than . . . 50%)	+ (Indicates inhibition greater than . . . 50%)		
CSC1OC(COCc2ccc3ccccc3c2)C(O)C(OCc2ccc3ccccc3c2)C1NC(=O)CCN (stereo not shown) [Compound 211]	+ (Indicates inhibition greater than . . . 50%)	+ (Indicates inhibition greater than . . . 50%)		
CSC1OC(COCc2ccc3ccccc3c2)C(O)C(OCc2ccc3ccccc3c2)C1NC(=O)CCNC(=N)N (stereo not shown) [Compound 212]	+ (Indicates inhibition greater than . . . 50%)	+ (Indicates inhibition greater than . . . 50%)		
COCC1OC(OCc2ccccc2)C(NC(=O)CNC(=N)N)C(OCc2ccccc2)C1O (stereo not shown) [Compound 214]			+ (Indicates inhibition greater than . . . 50%)	+ (Indicates inhibition greater than . . . 50%)
COCC1OC(OCc2ccccc2)C(NC(=O)CCNC(=N)N)C(OCc2ccccc2)C1O (stereo not shown) [Compound 216]			+ (Indicates inhibition greater than . . . 50%)	+ (Indicates inhibition greater than . . . 50%)
COCC1OC(OCc2ccccc2)C(NC(=O)CCCNC(=N)N)C(OCc2ccccc2)C1O (stereo not shown) [Compound 218]			+ (Indicates inhibition greater than . . . 50%)	+ (Indicates inhibition greater than . . . 50%)
COCC1OC(OCc2ccccc2)C(NC(=O)CN)C(OCc2ccc(Cl)cc2)C1O (stereo not shown) [Compound 219]			+ (Indicates inhibition greater than . . . 50%)	+ (Indicates inhibition greater than . . . 50%)
COCC1OC(OCc2ccccc2)C(NC(=O)CNC(=N)N)C(OCc2ccc(Cl)cc2)C1O (stereo not shown) [Compound 220]			+ (Indicates inhibition greater than . . . 50%)	+ (Indicates inhibition greater than . . . 50%)
COCC1OC(OCc2ccccc2)C(NC(=O)CCN)C(OCc2ccc(Cl)cc2)C1O (stereo not shown) [Compound 221]			+ (Indicates inhibition greater than . . . 50%)	+ (Indicates inhibition greater than . . . 50%)
COCC1OC(OCc2ccccc2)C(NC(=O)CCNC(=N)N)C(OCc2ccc(Cl)cc2)C1O (stereo not shown) [Compound 222]			+ (Indicates inhibition greater than . . . 50%)	+ (Indicates inhibition greater than . . . 50%)
COCC1OC(OCc2ccccc2)C(NC(=O)CCCN)C(OCc2ccc(Cl)cc2)C1O (stereo not shown) [Compound 223]			+ (Indicates inhibition greater than . . . 50%)	+ (Indicates inhibition greater than . . . 50%)
COCC1OC(OCc2ccccc2)C(NC(=O)CCCNC(=N)N)C(OCc2ccc(Cl)cc2)C1O (stereo not shown) [Compound 224]			+ (Indicates inhibition greater than . . . 50%)	+ (Indicates inhibition greater than . . . 50%)
COCC1OC(OCc2ccccc2)C(NC(=O)CN)C(OCc2ccc(-c3ccccc3)cc2)C1O (stereo not shown) [Compound 225]			+ (Indicates inhibition greater than . . . 50%)	+ (Indicates inhibition greater than . . . 50%)
COCC1OC(OCc2ccccc2)C(NC(=O)CNC(=N)N)C(OCc2ccc(-c3ccccc3)cc2)C1O (stereo not shown) [Compound 226]			+ (Indicates inhibition greater than . . . 50%)	+ (Indicates inhibition greater than . . . 50%)
COCC1OC(OCc2ccccc2)C(NC(=O)CCN)C(OCc2ccc(-c3ccccc3)cc2)C1O (stereo not shown) [Compound 227]			+ (Indicates inhibition greater than . . . 50%)	+ (Indicates inhibition greater than . . . 50%)
COCC1OC(OCc2ccccc2)C(NC(=O)CCNC(=N)N)C(OCc2ccc(-c3ccccc3)cc2)C1O (stereo not shown) [Compound 228]			+ (Indicates inhibition greater than . . . 50%)	+ (Indicates inhibition greater than . . . 50%)
COCC1OC(OCc2ccccc2)C(NC(=O)CCCN)C(OCc2ccc(-c3ccccc3)cc2)C1O (stereo not shown) [Compound 229]			+ (Indicates inhibition greater than . . . 50%)	+ (Indicates inhibition greater than . . . 50%)
COCC1OC(OCc2ccccc2)C(NC(=O)CCCNC(=N)N)C(OCc2ccc(-c3ccccc3)cc2)C1O (stereo not shown) [Compound 230]			+ (Indicates inhibition greater than . . . 50%)	+ (Indicates inhibition greater than . . . 50%)

Structure (SMILES)	MC4 inhibition at 10 micromolar (MC4; [1])	SST5 inhibition at 10 micromolar (SST5)	MC4 inhibition at 10 micromolar (MC4; [2])	SSTS inhibition at 10 micromolar (SST5)
COCC1OC(OCc2ccccc2)C(NC(=O)CNC(=N)N)C(OCc2ccc3ccccc3c2)C1O (stereo not shown) [Compound 232]			+ (Indicates inhibition greater than . . . 50%)	+ (Indicates inhibition greater than . . . 50%)
COCC1OC(OCc2ccccc2)C(NC(=O)CCN)C(OCc2ccc3ccccc3c2)C1O (stereo not shown) [Compound 233]			+ (Indicates inhibition greater than . . . 50%)	+ (Indicates inhibition greater than . . . 50%)
COCC1OC(OCc2ccccc2)C(NC(=O)CCNC(=N)N)C(OCc2ccc3ccccc3c2)C1O (stereo not shown) [Compound 234]			+ (Indicates inhibition greater than . . . 50%)	+ (Indicates inhibition greater than . . . 50%)
COCC1OC(OCc2ccccc2)C(NC(=O)CCCN)C(OCc2ccc3ccccc3c2)C1O (stereo not shown) [Compound 235]			+ (Indicates inhibition greater than . . . 50%)	+ (Indicates inhibition greater than . . . 50%)
COCC1OC(OCc2ccccc2)C(NC(=O)CCCNC(=N)N)C(OCc2ccc3ccccc3c2)C1O (stereo not shown) [Compound 236]			+ (Indicates inhibition greater than . . . 50%)	+ (Indicates inhibition greater than . . . 50%)
COCC1OC(OCc2ccc(Cl)cc2)C(NC(=O)CNC(=N)N)C(OCc2ccccc2)C1O (stereo not shown) [Compound 237]			+ (Indicates inhibition greater than . . . 50%)	+ (Indicates inhibition greater than . . . 50%)
COCC1OC(OCc2ccc(Cl)cc2)C(NC(=O)CCNC(=N)N)C(OCc2ccccc2)C1O (stereo not shown) [Compound 239]			+ (Indicates inhibition greater than . . . 50%)	+ (Indicates inhibition greater than . . . 50%)
COCC1OC(OCc2ccc(Cl)cc2)C(NC(=O)CCCNC(=N)N)C(OCc2ccccc2)C1O (stereo not shown) [Compound 241]			+ (Indicates inhibition greater than . . . 50%)	+ (Indicates inhibition greater than . . . 50%)
COCC1OC(OCc2ccc(Cl)cc2)C(NC(=O)CN)C(OCc2ccc(Cl)cc2)C1O (stereo not shown) [Compound 242]			+ (Indicates inhibition greater than . . . 50%)	+ (Indicates inhibition greater than . . . 50%)
COCC1OC(OCc2ccc(Cl)cc2)C(NC(=O)CNC(=N)N)C(OCc2ccc(Cl)cc2)C1O (stereo not shown) [Compound 243]			+ (Indicates inhibition greater than . . . 50%)	+ (Indicates inhibition greater than . . . 50%)
COCC1OC(OCc2ccc(Cl)cc2)C(NC(=O)CCN)C(OCc2ccc(Cl)cc2)C1O (stereo not shown) [Compound 244]			+ (Indicates inhibition greater than . . . 50%)	+ (Indicates inhibition greater than . . . 50%)
COCC1OC(OCc2ccc(Cl)cc2)C(NC(=O)CCNC(=N)N)C(OCc2ccc(Cl)cc2)C1O (stereo not shown) [Compound 245]			+ (Indicates inhibition greater than . . . 50%)	+ (Indicates inhibition greater than . . . 50%)
COCC1OC(OCc2ccc(Cl)cc2)C(NC(=O)CCCN)C(OCc2ccc(Cl)cc2)C1O (stereo not shown) [Compound 246]			+ (Indicates inhibition greater than . . . 50%)	+ (Indicates inhibition greater than . . . 50%)
COCC1OC(OCc2ccc(Cl)cc2)C(NC(=O)CCCNC(=N)N)C(OCc2ccc(Cl)cc2)C1O (stereo not shown) [Compound 247]			+ (Indicates inhibition greater than . . . 50%)	+ (Indicates inhibition greater than . . . 50%)
COCC1OC(OCc2ccc(Cl)cc2)C(NC(=O)CN)C(OCc2ccc(-c3ccccc3)cc2)C1O (stereo not shown) [Compound 248]			+ (Indicates inhibition greater than . . . 50%)	+ (Indicates inhibition greater than . . . 50%)
COCC1OC(OCc2ccc(Cl)cc2)C(NC(=O)CNC(=N)N)C(OCc2ccc(-c3ccccc3)cc2)C1O (stereo not shown) [Compound 249]			+ (Indicates inhibition greater than . . . 50%)	+ (Indicates inhibition greater than . . . 50%)
COCC1OC(OCc2ccc(Cl)cc2)C(NC(=O)CCN)C(OCc2ccc(-c3ccccc3)cc2)C1O (stereo not shown) [Compound 250]			+ (Indicates inhibition greater than . . . 50%)	+ (Indicates inhibition greater than . . . 50%)
COCC1OC(OCc2ccc(Cl)cc2)C(NC(=O)CCNC(=N)N)C(OCc2ccc(-c3ccccc3)cc2)C1O (stereo not shown) [Compound 251]			+ (Indicates inhibition greater than . . . 50%)	+ (Indicates inhibition greater than . . . 50%)
COCC1OC(OCc2ccc(Cl)cc2)C(NC(=O)CCCN)C(OCc2ccc(-c3ccccc3)cc2)C1O (stereo not shown) [Compound 252]			+ (Indicates inhibition greater than . . . 50%)	+ (Indicates inhibition greater than . . . 50%)
